Test results reported in patent publication US20150284344A1, “Substituted [1,2,4]triazole Compounds” (BASF SE, priority 2012, published 2015).

Experiments:
Type in all cases: cell-based
Botrytis cinerea = experiment: Microtiterplate test against grey mold Botrytis cinerea (Botrci), M1 / C1; conditions: comparison test C1, control = 100%
Pyricularia oryzae = conditions: comparison test C2, control = 100%
Septoria tritici = experiment: Microtiterplate test against leaf blotch on wheat caused by Septoria tritici (Septtr), M3 / C4; conditions: comparison test C4, control = 100%
Leptosphaeria nodorum = experiment: Microtiterplate test against wheat leaf spots caused by Leptosphaeria nodorum (Leptno), C3; conditions: comparison test C3, control = 100%

SMILES	Growth (%) at 31 ppm Botrci (Botrytis cinerea) [%]	Growth (%) at 31 ppm Pyrior (Pyricularia oryzae) [%]	Growth (%) at 2 ppm Septtr (Septoria tritici) [%]	Growth (%) at 2 ppm Leptno (Leptosphaeria nodorum) [%]
Cc1cc(Oc2ccc(Cl)cc2)ccc1C(C)(O)Cn1cncn1 (stereo not drawn) [Compound I-4, 2-[4-(4-chlorophenoxy)-2-methyl-phenyl]-1-(1,2,4-triazol-1-yl)propan-2-ol]	0	0	0	0
Cc1cc(Oc2ccc(Cl)cc2)ccc1C(O)(Cn1cncn1)C(F)(F)F (stereo not drawn) [Compound I-5, 2-[4-(4-chlorophenoxy)-2-methyl-phenyl]-1,1,1-trifluoro-3-(1,2,4-triazol-1-yl)propan-2-ol]	0	0	2	1
Cc1cc(Oc2ccc(Cl)cc2)ccc1C(O)(CF)Cn1cncn1 (stereo not drawn) [EP 113 640 A2, compound 53, Table I, reference compound]	63	47	40	65
